Columns and labels:
KDM4E [1] = target: T1, KDM4E (Homo sapiens, UniProt B2RXH2); test: Inhibition of KDM4E arginine hydroxylation (ROH), LC–MS; format: biochemical; conditions: for inhibition of +16 Da product formation: KDM4E with H2a(1–20)
T1 construct: KDM4E1–337; made in house; host or cells: E. coli
T1 sequence (B2RXH2 1-337): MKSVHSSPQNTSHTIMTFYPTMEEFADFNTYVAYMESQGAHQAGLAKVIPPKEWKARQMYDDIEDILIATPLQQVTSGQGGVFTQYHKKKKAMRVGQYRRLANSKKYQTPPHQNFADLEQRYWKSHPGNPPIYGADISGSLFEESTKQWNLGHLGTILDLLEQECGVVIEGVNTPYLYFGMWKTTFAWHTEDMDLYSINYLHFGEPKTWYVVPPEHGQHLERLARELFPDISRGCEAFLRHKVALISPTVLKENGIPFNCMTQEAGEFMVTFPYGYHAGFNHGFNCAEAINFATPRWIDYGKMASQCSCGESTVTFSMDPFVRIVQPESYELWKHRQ
Protocol: µM (NH4)2Fe(SO4)2, and 50 mM HEPES (pH 7.5). (c,d) Inhibition of arginine hydroxylation (ROH) activity of KDM4E by small molecule 2OG oxygenase inhibitors. ( c ) ROH activity measurements were performed using an LC–MS based assay (Error bars; +/- SD; n = 3 independent assays). Conditions: 10 µM H2a(1 -20) incubated with 1 µM KDM4E, 100 µM sodium L-ascorbate, 10 µM (NH4)2Fe(SO4)2 and 100 µM 2OG.
Reactions wer e quenched after 90 min. […]

KDM4E [2] = target: T1, KDM4E; test: FDH-coupled demethylation assay, Michaelis–Menten kinetics; format: biochemical
Protocol: The RDM activity of KDM4E with H2a(1–20)R3me2a was compared with demethylation of H3(1–21)R2me2a using a formaldehyde dehydrogenase (FDH) assay[23],[24]. KDM4E catalysed demethylation of H2a R3me2a was less efficient than H3 R2me2a by approximately three-fold under the same conditions (kcat/KM 0.89 hr^−1 µM^−1 for H2a(1–20)R3me2a and 2.58 hr^−1 µM^−1 for H3(1–21)R2me2a).
When LC–MS-based assays were used, time course assays were carried out as described; product formation (%) was plotted against time (s) using GraphPad Prism5 version 5.04. The gradient of each reaction was calculated by fitting a line of linear regression to the first-order region. The resultant slope was used to calculate reaction rate in µM hr^−1. The rate versus peptide concentration (µM) was plotted and the KM, kcat, and Vmax values determined by fitting the Michaelis–Menten equation using GraphPad Prism5 version 5.04. […]
Supplementary Figure 3 KDM4E catalysed H2a(1–20) hydroxylation and H3(1–21)R2me2a demethylation. Michaelis–Menten plots monitoring: ( a) hydroxylation of H2a(1–20) measured using LC– MS (R2 value obtained was 0.5 indicating poor goodness of fit, likely due to limited data at low substrate concentrations due to signal:noise limitations), (b) demethylation of H2a(1–20)R3me2a, and (c) demethylation of H3(1–21)R2me2a measured using the FDH-coupled demethylation assay. […]

KDM4E [3] = target: T1, KDM4E; test: MALDI–TOF MS screen of biotin-tagged H2a(1–20)R3X peptides with KDM4E; format: biochemical; conditions: for +16 Da mass shift (hydroxylation) / −14 Da mass shift (demethylation): 60 min, KDM4E, MALDI–TOF MS, n = 2; for RDM activity: initial screen, biotinylated peptides
Source text: (§1) To investigate whether histone H2a is a JmjC-KDM substrate, we initially used mass spectrometry (MS) to screen a set of biotinylated N-terminal H2a(1–20) peptides with post-translational modifications (PTMs) at Arg-3, i.e. asymmetrically/symmetrically di-methylated Arg-3 (H2aR3me2a, H2aR3me2s, respectively), mono-methylated Arg-3 (H2aR3me1) and citrullinated Arg-3 (H2aR3Ci), against KDM4A, KDM4D, KDM4E and KDM5C. […] H2a(1–20)R3me2a, which appeared to be the most efficient RDM substrate in the screen, was then re-synthesised without a biotin tag and tested for RDM activity using the catalytic domains of all KDM4/KDM5 subfamily members.
(§2) MS-based screening assays with peptides and calf thymus histones were as reported; see Supplementary Table 6 for conditions. Time course assays were based on reported procedures. In brief, equal volumes of the enzyme and substrate solutions were combined to initiate the reaction; 10 µL of 2% (v/v) formic acid (HCOOH) in ddH2O or 100% methanol was added to 10 µL of the reaction mixture to quench reactions at different time points. Unless otherwise stated, time course assays were carried out in triplicate. In some cases, LC–MS was used instead of MALDI-TOF MS to avoid a MALDI matrix induced artefact with the hydroxylated product (Supplementary Fig. 16).
(§3) Supplementary Figure 1 Initial Screen of H2a fragments with KD M4 A, KDM4D, KDM4E, and KDM5C.
(§4) KDM4D, KDM4E, and KDM5C with H2a(1–20)R3X peptides from the AltaBioscience peptide library (Set 5) […]
(§5) (potentially), KDM4E, and KDM5C with H2a(1–20)R3me2a; KDM4E and KDM5C with H2a(1–20)R3me2s; and KDM5C wit h H2a(1–20 )R3 me1 . +1 6 Da mass shift s corr esponding t o hydr oxylat ion, were observed wit h […]
(§6) 20), and H2a(1–20)Ci3 (only with KDM4E).
(§7) H 2 a( 1–20)Ci3 and KDM5C with H2a(1–20 ) . […]
(§8) peptides except H2a(1–20)R3me2a. * Low-level peaks indicating ~10% demethylation. Experiments were repeated with the same results. For assay conditions see Supplementary Table 6 (n = 2, independent assays). Peptides were synthesised linked with C-terminal Nε-(D-biotin)-L- ly si ne -amide group (see
(§9) Supplementary Table 5 ) . […]
(§10) (1 picture or pasted object on this page, not shown here)
(§11) [ E nz ym e] [Peptide] [2OG] [Ascorbate] [(NH4)2F e(S O4)2] [TCEP] Buffer pH7.5 Enzyme Cognate substrate (mM) (mM) (mM) (mM) (mM) (mM) [HE PE S]
(§12) Supplementary Table 6 Summary of MS assay conditions for substrate screening. These conditions enabled efficient turnover of established substrates. Reactions were carried out at 37 °C unless otherwise st ated. […]

KDM4A = test: MALDI–TOF MS screen of biotin-tagged H2a(1–20)R3X peptides with KDM4A; format: biochemical, human; conditions: for RDM activity: initial screen, biotinylated peptides
Source text: as §1, §2, §3, §4, §5, §6, §7, §8, §9, §10, §11, §12

KDM5C = target: T2, KDM5C (Homo sapiens, UniProt P41229); test: MALDI–TOF MS screen of biotin-tagged H2a(1–20)R3X peptides with KDM5C; format: biochemical; conditions: for mass shift / −14 Da mass shift (demethylation): 60 min, KDM5C, MALDI–TOF MS, n = 2; for RDM activity: initial screen, biotinylated peptides
T2 construct: KDM5C 1– 765; made in house; host or cells: Sf9 cells
T2 sequence (P41229 1-765): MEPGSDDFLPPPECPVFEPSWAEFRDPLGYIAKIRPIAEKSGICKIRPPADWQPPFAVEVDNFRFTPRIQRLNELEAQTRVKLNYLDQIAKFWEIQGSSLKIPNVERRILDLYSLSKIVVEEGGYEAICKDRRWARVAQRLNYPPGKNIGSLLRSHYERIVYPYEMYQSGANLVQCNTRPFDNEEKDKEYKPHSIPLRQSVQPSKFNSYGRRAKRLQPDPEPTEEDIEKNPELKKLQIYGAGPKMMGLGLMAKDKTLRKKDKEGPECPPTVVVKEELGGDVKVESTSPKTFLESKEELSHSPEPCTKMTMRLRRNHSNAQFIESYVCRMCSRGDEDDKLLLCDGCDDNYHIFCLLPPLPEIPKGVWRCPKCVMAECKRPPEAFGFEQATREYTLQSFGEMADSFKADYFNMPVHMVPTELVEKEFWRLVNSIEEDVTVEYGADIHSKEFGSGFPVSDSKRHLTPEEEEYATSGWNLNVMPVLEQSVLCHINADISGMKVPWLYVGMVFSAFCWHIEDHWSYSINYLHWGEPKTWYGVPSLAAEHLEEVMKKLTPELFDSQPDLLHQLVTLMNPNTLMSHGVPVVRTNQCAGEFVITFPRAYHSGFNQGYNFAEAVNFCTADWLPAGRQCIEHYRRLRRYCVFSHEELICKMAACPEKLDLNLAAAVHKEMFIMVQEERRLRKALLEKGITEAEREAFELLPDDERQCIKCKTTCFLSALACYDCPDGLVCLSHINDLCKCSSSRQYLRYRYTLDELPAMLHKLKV
Source text: as §1, §2, §3, §4, §5, §6, §7, §8, §9, §10, §11, §12

KDM4D = test: MALDI–TOF MS screen of biotin-tagged H2a(1–20)R3X peptides with KDM4D; format: biochemical, human; conditions: 60 min, n = 2
Source text: as §1, §2, §3, §4, §5, §6, §7, §8, §9, §10, §11, §12

[4] = 60 min, 2 µM KDM4A, 10 µM peptide, MALDI–TOF MS, n = 2

+16 Da mass shift (hydroxylation) (KDM4E [3]) | RDM activity (KDM4E [3]) | −14 Da mass shift (demethylation) (KDM5C) | RDM activity (KDM5C) | Compound | inhibition of +16 Da product formation (KDM4E [1]) | mass shift (KDM4A; [4]) | +16 Da mass shift (hydroxylation) (KDM4D) | RDM activity (KDM4A) | other results
observed | – | – | – | SGR GKQ GGKAR AKAKT R SSR - NH - Ahx - K- B i oti n [H2a(1–20) (AB), biotinylated H2a(1–20)] | – | No mass shifts were observed | potentially | – | mass shift (KDM5C): No mass shifts were observed
observed | Evidence for RDM activity | observed | Evidence for RDM activity | SGR[me1]GKQGGKARAKAKTRSSR-NH-Ahx-K-Biotin [H2a(1–20)R3me1 (AB), biotinylated H2a(1–20) with mono-methylated Arg-3] | – | No mass shifts were observed | potentially | to a lesser extent | –
observed | Evidence for RDM activity | observed | Evidence for RDM activity | SGR[me2a]GKQGGKARAKAKTRSSR-NH-Ahx-K-Biotin [H2a(1–20)R3me2a (AB), biotinylated H2a(1–20) with asymmetrically di-methylated Arg-3, AltaBioscience library] | – | – | potentially | to a lesser extent | −14 Da mass shift (demethylation) (KDM4E [3]): observed; −14 Da mass shift (demethylation) (KDM4A; 60 min, 2 µM KDM4A, 10 µM peptide, 37 °C, MALDI–TOF MS, n = 2): observed; −14 Da mass shift (demethylation) (KDM4D): potentially
observed | Evidence for RDM activity | observed | Evidence for RDM activity | SGR[me2s ]GKQGGKARAKAKTRSSR-NH-Ahx-K-Biotin [H2a(1–20)R3me2s (AB), biotinylated H2a(1–20) with symmetrically di-methylated Arg-3] | – | No mass shifts were observed | potentially | to a lesser extent | −14 Da mass shift (demethylation) (KDM4E [3]): observed

The next lines start with the compound.

Compound | +16 Da mass shift (hydroxylation) (KDM4E [3]) | RDM activity (KDM4E [3]) | −14 Da mass shift (demethylation) (KDM5C) | RDM activity (KDM5C) | inhibition of +16 Da product formation (KDM4E [1]) | mass shift (KDM4A; [4]) | +16 Da mass shift (hydroxylation) (KDM4D) | RDM activity (KDM4A) | other results
O=C(O)c1ccnc(C(=O)O)c1 [2,4-PDCA, 2,4-pyridine dicarboxylic acid] | – | – | – | – | inhibited | – | – | – | –
Oc1cccc2cccnc12 [IOX1, 8-hydroxyquinoline] | – | – | – | – | inhibited | – | – | – | IC50 (KDM4E [1]): 22.9 µM
O=C(O)CNC(=O)C(=O)O [NOG, N-oxalylglycine] | – | – | – | – | inhibited | – | – | – | –
AR [ me 2a ] T KQ T AR KST GGKAPR KQ L A [H3(1–21)R2me2a, reference compound] | – | – | – | – | – | – | – | – | kcat/KM (demethylation) (KDM4E [2]; FDH assay, 2 µM KDM4E, 200 µM 2OG, pH 7.5, n = 3 assay repeats): 717 M⁻¹ s⁻¹; kcat/KM relative to KDM substrate H3 K9me3 (fold less) (KDM4E [2]; same FDH assay, H3 K9me3 from ref 7): 13 fold
SGR[C i]GKQGGKARAKAKTRSSR-NH-Ahx-K-Biotin [H2a(1–20)Ci3 (AB), biotinylated H2a(1–20) with citrullinated Arg-3] | observed | – | – | – | – | No mass shifts were observed | – | – | mass shift (KDM5C): No mass shifts were observed; mass shift (KDM4D): No mass shifts were observed

Source: PMC11603075 (Communications Biology, 2024)
